Data taken from ChEMBL document CHEMBL2311472, “Discovery and optimization of potent broad-spectrum arenavirus inhibitors derived from benzimidazole and related heterocycles” (Bioorg Med Chem Lett, 2013).

Key:
[1] = tested on: Guanarito virus; experiment: Antiviral activity against Guanarito virus; type: functional; details: Mammarenavirus guanaritoense
[2] = tested on: Junin virus; experiment: Antiviral activity against Junin virus; type: functional, organism-based; details: Mammarenavirus juninense
[3] = tested on: Sabia virus; experiment: Antiviral activity against Sabia virus; type: functional
[4] = tested on: Machupo mammarenavirus; experiment: Antiviral activity against Machupo virus; type: functional; details: Mammarenavirus machupoense
[5] = tested on: Lassa virus; experiment: Antiviral activity against Lassa virus by pseudo-type antiviral assay; type: functional, organism-based; details: Mammarenavirus lassaense

Row | Structure (SMILES) | EC50 [5] [µM] | other results
1 | COc1ccc(-n2cnc3cc(NCc4ccc(C(C)C)cc4)ccc32)cc1 | 0.0014 | EC50 [1]: 0.00044 µM; EC50 [2]: 0.00062 µM; EC50 [3]: 0.021 µM; EC50 [4]: 0.0031 µM
2 | CCOc1ccc(-n2c(N)nc3cc(NCc4ccc(CC)cc4)ccc32)cc1 | 0.029 | –
3 | CCOc1ccc(-n2c(O)nc3cc(NCc4ccc(CC)cc4)ccc32)cc1 | 1.8 | –
4 | CCOc1ccc(-n2cnc3cc(NCc4ccc(CC)cc4)cc(C(=O)OC)c32)cc1 | 0.22 | –
5 | CCOc1ccc(-n2cnc3cc(NCc4ccc(CC)cc4)cc(C(=O)O)c32)cc1 | > 50 | –
6 | CCOc1ccc(-n2cnc3cc(NCc4ccc(CC)cc4)cc(N)c32)cc1 | 0.62 | –
7 | CCOc1ccc(-n2cnc3cc(NCCc4ccc(CC)cc4)cnc32)cc1 | 0.065 | –
8 | CCOc1ccc(-n2cnc3cc(NCCCc4ccc(CC)cc4)cnc32)cc1 | 0.21 | –
9 | CCOc1ccc(-n2cnc3cc(/N=C/c4ccc(CC)cc4)cnc32)cc1 | 4.3 | –
10 | CCOc1ccc(Cn2cnc3cc(NCc4ccc(CC)cc4)cnc32)cc1 | 1.6 | –
11 | CCc1ccc(CNc2cnc3c(c2)ncn3-c2ccc(O)cc2)cc1 | 0.019 | –
12 | CCc1ccc(CNc2cnc3c(c2)ncn3-c2ccc(OCCCO)cc2)cc1 | 0.013 | –
13 | CCc1ccc(CNc2cnc3c(c2)ncn3-c2ccc(OCCN(C)C)cc2)cc1 | 0.08 | –
14 | CCc1ccc(CNc2cnc3c(c2)ncn3-c2ccc(NC(C)=O)cc2)cc1 | 0.011 | –
15 | CCOc1ccc(-n2cnc3cc(NCc4ccc(CC)cc4)cnc32)cc1N(C)C | 0.25 | –
16 | CCOc1ccc(-n2cnc3cc(NCc4ccc(CC)cc4)cnc32)c(CN)c1 | 1.5 | –
17 | CCOc1ccc(-n2cnc3cc(NCc4ccc(CC)cc4)cnc32)cc1CN | 0.058 | –
18 | CCOc1ccc(-n2cnc3cc(NCc4ccc(CC)c(N(C)C)c4)cnc32)cc1 | 0.0059 | –
19 | CCOc1ccc(-n2cnc3cc(NCc4ccc(CC)c(CN)c4)cnc32)cc1 | 0.026 | –

Row | Structure (SMILES) | EC50 [5] [µM] | other results
20 | CCOc1ccc(-n2cnc3cc(NCc4ccc(CC)cc4)ccc32)cc1 | 0.0015 | –
21 | CCOc1ccc(-n2c(C)nc3cc(NCc4ccc(CC)cc4)ccc32)cc1 | 0.0019 | –
22 | CCCc1nc2cc(NCc3ccc(CC)cc3)ccc2n1-c1ccc(OCC)cc1 | 0.17 | –
23 | CCOc1ccc(-n2c(C#N)nc3cc(NCc4ccc(CC)cc4)ccc32)cc1 | 0.0016 | –
24 | CCOc1ccc(-n2c(C(=O)O)nc3cc(NCc4ccc(CC)cc4)ccc32)cc1 | 0.0015 | –
25 | CCOc1ccc(-n2c(C(N)=O)nc3cc(NCc4ccc(CC)cc4)ccc32)cc1 | 0.0092 | –
26 | CCOc1ccc(-n2ccc3cc(NCc4ccc(CC)cc4)ccc32)cc1 | 0.069 | –
27 | CCOc1ccc(-c2c[nH]c3cc(NCc4ccc(CC)cc4)ccc23)cc1 | 0.013 | EC50 [2]: 0.012 µM; EC50 [3]: 0.0039 µM; EC50 [4]: 0.04 µM
28 | COc1ccc(-n2ncc3cc(NCc4ccc(C(C)C)cc4)ccc32)cc1 | 0.13 | –
29 | CCOc1ccc(-n2nnc3cc(NCc4ccc(CC)cc4)ccc32)cc1 | 0.0061 | –
30 | CCOc1ccc(-c2cnc3cc(NCc4ccc(CC)cc4)ccn23)cc1 | 0.0093 | –
31 | CCOc1ccc(-n2ccc3cc(NCc4ccc(CC)cc4)cnc32)cc1 | 0.025 | –
32 | CCOc1ccc(-n2cnc3nc(NCc4ccc(CC)cc4)ccc32)cc1 | 0.0068 | –
33 | CCOc1ccc(-n2cnc3cc(NCc4ccc(CC)cc4)cnc32)cc1 | 0.00016 | EC50 [1]: 0.0035 µM; EC50 [2]: 0.0079 µM; EC50 [3]: 0.054 µM; EC50 [4]: 0.028 µM
34 | CCOc1ccc(-n2nnc3cc(NCc4ccc(CC)cc4)cnc32)cc1 | 0.00087 | EC50 [1]: 0.0077 µM; EC50 [2]: 0.014 µM; EC50 [3]: 0.093 µM; EC50 [4]: 0.081 µM
35 | CCOc1ccc(-n2c(C(N)=O)nc3cc(NCc4ccc(CC)cc4)cnc32)cc1 | 0.0044 | –
36 | CCOc1ccc(-n2c(C(=O)O)nc3cc(NCc4ccc(CC)cc4)cnc32)cc1 | 0.00016 | –
37 | CCOc1ccc(-n2cnc3cc(NCc4ccc(CC)cc4)cnc32)cn1 | 0.009 | –
38 | CCOc1ccc(-n2cnc3cc(NCc4ccc(CC)cc4)cnc32)nc1 | 0.00098 | –
